In one test the test system is SOCS1−/− mice. Briefly: Lethal perinatal auto-inflammatory disease in SOCS1−/− mice. The test is classed as in vivo, mouse. The note with it: peptide combined with CD4 T cells. The text has this:
FIGS. 15A-15F. SOCS1-KIR inhibition of lethal inflammatory pathology in SOCS1−/− mice is correlated to enhanced regulatory T cell homeostasis. (FIG. 15A) Kaplan Meier curve showing survival of SOCS1^−/− (black square; n=7) or CD4^+/SOCS1-KIR treatment (purple triangles, n=12). Numbers of mice in each group are indicated in parentheses. Mice were euthanized when moribund with survival comparisons by Mantel-Cox. Statistical significance denoted by asterisks. (FIG. 15B) Photographs of H & E stains depicting heart and liver tissues of 2 week old SOCS1^−/−, SOCS1^−/− mice receiving dual treatments, or littermate control mice. Photographs shown of H & E stained liver and heart of untreated SOCS1^−/− (N=8) and WT (N=7) mice are representative of 100% of samples analyzed. Photographs shown of H & E stained liver and heart of SOCS1^−/− mice receiving combined treatments are representative of 2 out of 5 mice in regard to heart samples and 1 out of 5 mice in regards to liver tissue. (FIG. 15C) Graph showing average daily weights of SOCS1^−/− mice untreated (n=16), CD4^+/SOCS1-KIR treatment (n=12), or WT littermate controls (n=9) over a two week period. (FIG. 15D) Photographs of 2 week old SOCS1^−/− mice, SOCS1^−/− mice receiving dual treatment, and WT littermate controls. (FIG. 15E) Graphs showing IFNg levels within the sera of 2 week old WT (n=7) or SOCS1^−/− mice with (n=8) and without (n=10) CD4^+/SOCS1-KIR treatment, measured by ELISA. (FIG. 15F) Graphs showing absolute numbers of CD4^+Foxp3^+ lymphocytes present in two week old SOCS1^−/− and WT littermate control mice with or without CD4^+/SOCS1-KIR treatment and WT 6-8 week old adult mice. Each dot is representative of an individual mouse with averages denoted by lines. Statistics were performed using unpaired, two-tailed t test comparing treated SOCS1^−/− to untreated SOCS1^−/− 2 wk. Statistical significance is denoted by asterisks. *, p≤0.05; **, p 0≤0.005; ***, p≤0.0005.

The target in another test is JAK2 (Homo sapiens, UniProt O60674). Briefly: Binding to the activation loop of JAK2.
Another test relates to IFNγ. Briefly: IFNγ expression by qPCR and ELISA under Th17 inducing conditions. The format is cell-based, mouse. The note with it: SOCS1-KIR peptide (20 μM). As to the method:
FIGS. 5A-5D. […] (FIGS. 5A and 5B) SOCS1^+/+ or SOCS1^+/− CD4^+CD25^− T cells were stimulated with αCD3 antibodies alone or with αCD3+SOCS1-KIR peptide (20 μM) for 72 h. (FIG. 5A) CD25 expressing cells were assessed by flow cytometry. Results are representative of 4 independent experiments. (FIG. 5B) Proliferation was assessed by CFSE labeling and flow cytometry, cell counts, and ^3[H] thymidine incorporation. n=4. (FIGS. 5C and 5D) SOCS1^+/+ or SOCS1^+/− CD4^+CD25^− T cells were placed under Th17 inducing conditions in the absence or presence of SOCS1-KIR peptide (20 μM) (FIG. 5C) IFNγ expression, relative to β-actin., was assessed by qPCR (left) and ELISA (right) (n=4). (FIG. 5D) pSTAT1 and STAT1 protein expressions were assessed by western blotting. Results are representative of 4 independent experiments. Statistical comparisons were performed using Mann-Whitney U test. (*P<0.05). iTh17=Th17 inducing conditions, WT=SOCS1^+/+, and HT=SOCS1^+/−.
CD4^+CD25^− T lymphocytes (1×10^5/well) were cultured in triplicate at 37° C. (5% CO2) in RPMI 1640 (Cellgro 10-040-CV) containing 10% FBS (INVITROGEN™ GIBCO®) 1% antibiotic/antimycotic (Herndon, Va.), and 50 μM β-ME (MP Biomedicals, Solon, Ohio). […] Cells were incubated for 72 hours and assessed for Treg differentiation by ICS for Foxp3. […] Cells were collected after 5 days and assessed for activation and Th17 differentiation. […]

Sequence of JAK2 (O60674 whole entry, species assumed): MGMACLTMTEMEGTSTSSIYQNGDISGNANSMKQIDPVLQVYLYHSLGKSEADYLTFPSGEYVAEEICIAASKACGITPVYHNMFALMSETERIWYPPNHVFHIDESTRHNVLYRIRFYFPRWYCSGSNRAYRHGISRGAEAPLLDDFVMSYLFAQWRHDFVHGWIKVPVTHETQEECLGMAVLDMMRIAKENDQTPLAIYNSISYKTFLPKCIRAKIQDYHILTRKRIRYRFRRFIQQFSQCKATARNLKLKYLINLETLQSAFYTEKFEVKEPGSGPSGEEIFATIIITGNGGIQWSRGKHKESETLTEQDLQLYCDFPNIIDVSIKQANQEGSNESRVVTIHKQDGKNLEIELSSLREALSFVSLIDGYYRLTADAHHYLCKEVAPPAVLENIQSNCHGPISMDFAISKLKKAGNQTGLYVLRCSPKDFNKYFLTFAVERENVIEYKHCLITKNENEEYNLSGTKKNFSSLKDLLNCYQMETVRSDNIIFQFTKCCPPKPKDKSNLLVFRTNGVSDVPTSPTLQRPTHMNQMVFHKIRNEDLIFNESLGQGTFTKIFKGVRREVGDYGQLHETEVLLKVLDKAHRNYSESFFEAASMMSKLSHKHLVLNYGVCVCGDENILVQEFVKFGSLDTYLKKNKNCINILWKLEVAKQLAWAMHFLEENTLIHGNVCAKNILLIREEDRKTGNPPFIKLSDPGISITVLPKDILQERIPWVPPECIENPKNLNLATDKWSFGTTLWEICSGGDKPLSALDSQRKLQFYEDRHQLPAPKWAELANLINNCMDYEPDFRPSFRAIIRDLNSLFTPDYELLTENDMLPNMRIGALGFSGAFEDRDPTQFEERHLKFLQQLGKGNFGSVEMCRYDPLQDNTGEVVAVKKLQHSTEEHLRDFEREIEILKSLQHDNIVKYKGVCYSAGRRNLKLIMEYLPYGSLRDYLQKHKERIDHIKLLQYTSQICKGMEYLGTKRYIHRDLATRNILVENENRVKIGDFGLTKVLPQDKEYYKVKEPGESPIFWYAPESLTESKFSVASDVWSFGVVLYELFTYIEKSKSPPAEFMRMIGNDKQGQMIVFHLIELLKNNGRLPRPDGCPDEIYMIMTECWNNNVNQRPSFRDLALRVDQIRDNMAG

Regarding “DTHFRTFRSHSDYRRI (SOCS1-KIR peptide) [SOCS1 mimetic peptide corresponding to the KIR region of SOCS1]”, the “Peripheral Foxp3+CD4+ Tregs” value in the test on SOCS1−/− mice (2 week old SOCS1−/− mice) was “enhanced peripheral homeostasis of Foxp3+CD4+ Tregs”. In addition, in the test with SOCS1−/− mice (SOCS1−/− mice), the “Leukocytic infiltration into heart and liver” value was “prevent/delay leukocytic infiltration into heart and liver”; the “Quality of life (size and overall health)” value is “improve the quality of life (size and overall health improvement)”; the Survival entry is reported as “could extend the life”. Also, the “Binding to and inhibition of JAK2” value with JAK2 was “binds to and inhibits the function of JAK2”. Further, the “Reduction in IFNγ protein production” value with IFNγ (ELISA) worked out at 2 fold. Also, the “Reduction in IFNγ mRNA expression” value in the test with IFNγ (qPCR relative to β-actin) is reported as 2 fold.

Values taken from patent publication US11603387B2, “SOCS mimetics for the treatment of diseases” (UNIVERSITY OF FLORIDA RESEARCH FOUNDATION, INC., priority 2014, dated 2023).
